Laboratory results published in patent publication US11679110B2, “Methods of treating disorders using CSF1R inhibitors” (Deciphera Pharmaceuticals, LLC, priority 2018, dated 2023).
Where two headings read alike, the source gives them in different places. Marks after values point to notes of the source that are not given here.

Test: Plasma pharmacokinetics of Compound 1 in patients with advanced solid tumor malignancies and TGCT
Assay type: in vivo, human
Settings: for Cmax / AUC(0-t) / Tmax: human, plasma, oral; for Tmax: Median (Min, Max)
Experimental: PK analysis was conducted on all 38 patients. Serial blood samples were collected for PK and took place on either Day −7, Cycle 1, Day 1 (C1D1) and C2D1 at pre-dose, 0.5, 1, 2, 4, 6, 8, 10-12, and 24 hr time points or Day −7, C1D1, C1D8, and C2D1 at pre-dose, 1, 2, 4, 6, and 8 hr time points, or C1D1, C1D8, and C2D1 at pre-dose, 1, 2, 4, 6, and 8 hr time points. High fat meal was given prior to dosing of Compound 1 on Day −7. PD effects were measured by two methodologies: 1) depletion of CSF1R-expressing monocytes in peripheral blood (Cohorts 1-7) from C1D1, C1D15 and C2D1; and 2) increase of plasma levels of CSF1 and IL-34, the ligands for CSF1R (Cohorts 1-7) on C1D1, C1D15, and C2D1. For the CD16^+ monocyte assay, whole blood collected in an EDTA vacutainer was aliquoted into tubes and incubated with fluorescently-labeled antibodies (CD14-Alexa488 (BD Pharmingen); CD16-PE-Cy7 (BD Pharmingen); and TIE2-APC (R&D Systems). After incubation, red blood cells were lysed, and the remaining cells were washed several times before being analyzed on a flow cytometer. For the plasma CSF1 assay or IL-34, whole blood collected in an EDTA vacutainer was centrifuged, and the plasma was collected and frozen. Plasma levels of CSF1 or IL-34 were measured using a commercial ELISA kit (R&D Systems).
Cohort 1 had daily dosing.

SMILES: Cc1nc(-c2cnc(NC(C)C)n(C)c2=O)ccc1Oc1ccnc(-c2cnn(C)c2)c1 [Compound 1, 2-(isopropylamino)-3-methyl-5-(6-methyl-5-((2-(1-methyl-1H-pyrazol-4-yl)pyridin-4-yl)oxy)pyridin-2-yl)pyrimidin-4(3H)-one]
- Ctrough (Cohort 1 10 mg QD, C1D8, Geo Mean): 331 ng/mL
- Ctrough (Cohort 1 10 mg QD, C2D1, Geo Mean): 447^c ng/mL
- Ctrough (Cohort 2 10 mg QD x 5 d, BIW maintenance dose, C1D8, Geo Mean): 184 ng/mL
- Ctrough (Cohort 2 10 mg QD x 5 d, BIW maintenance dose, C2D1, Geo Mean): 122 ng/mL
- AUC0-8 (Cohort 2 10 mg Twice Weekly after 5-day QD loading dose, C2D1, GM (CV %)): 1030 (63) hr*ng/mL
- Ctrough (Cohort 3 20 mg QD x 5 d, QW maintenance dose, C1D8, Geo Mean): 850 ng/mL
- Ctrough (Cohort 3 20 mg QD x 5 d, QW maintenance dose, C2D1, Geo Mean): 205 ng/mL
- AUC0-8 (Cohort 3 20 mg Weekly after 5-day QD loading dose, C2D1, GM (CV %)): 3380 ng·h/mL
- Ctrough (Cohort 4 20 mg QD x 5 d, BIW maintenance dose, C1D8, Geo Mean): 483 ng/mL
- Ctrough (Cohort 4 20 mg QD x 5 d, BIW maintenance dose, C2D1, Geo Mean): 441 ng/mL
- AUC0-8 (Cohort 4 20 mg Twice Weekly after 5-day QD loading dose, C2D1, GM (CV %)): 4300 (2.82) hr*ng/mL
- Ctrough (Cohort 5 30 mg QD x 5 d, BIW maintenance dose, C1D8, Geo Mean): 1020 ng/mL
- Ctrough (Cohort 5 30 mg QD x 5 d, BIW maintenance dose, C2D1, Geo Mean): 574 ng/mL
- AUC0-8 (Cohort 5 30 mg Twice Weekly after 5-day QD loading dose, C2D1, GM (CV %)): 4750 (53.2) hr*ng/mL
- Ctrough (Cohort 6 30 mg QD x 5 d, BIW maintenance dose (so in the source), C2D1, Geo Mean): 570 ng/mL
- AUC0-8 (Cohort 6 40 mg Twice Weekly after 5-day QD loading dose, C2D1, GM (CV %)): 7290 (28.1) hr*ng/mL
- AUC0-8 (Cohort 7 20 mg QD after 3-day 50 mg QD loading dose, C2D1, GM (CV %)): 5580 (86.8) hr*ng/mL
- Ctrough (Cohort 7 50 mg QD x 3 d, QD maintenance dose, C2D1, Geo Mean): 1040 ng/mL
- Cmax (10 mg, Cohort 1 10 mg QD, C1D1, GM (CV %)): 155 ng/mL
- AUC(0-t) (10 mg, Cohort 1 10 mg QD, C1D1, GM (CV %), read-out: AUC0-8): 770 ng·h/mL
- Cmax (10 mg, Cohort 1 10 mg QD, C1D1, Geo Mean): 155 ng/mL
- AUC(0-t) (10 mg, Cohort 1 10 mg QD, C1D1, Geo Mean, read-out: AUC0-8 h): 770 ng·h/mL
- Tmax (10 mg, Cohort 1 10 mg QD, C1D1): 1 h
- Cmax (10 mg, Cohort 1 10 mg QD, C2D1, GM (CV %)): 767 ng/mL
- AUC(0-t) (10 mg, Cohort 1 10 mg QD, C2D1, GM (CV %), read-out: AUC0-8): 4510 ng·h/mL
- Cmax (10 mg, Cohort 1 10 mg QD, C2D1, Geo Mean): 767 ng/mL
- AUC(0-t) (10 mg, Cohort 1 10 mg QD, C2D1, Geo Mean, read-out: AUC0-8 h): 4470 ng·h/mL
- Tmax (10 mg, Cohort 1 10 mg QD, C2D1): 0.5 h
- Cmax (10 mg, Cohort 1 10 mg QD, Day -7, Geo Mean): 75.9 ng/mL
- AUC(0-t) (10 mg, Cohort 1 10 mg QD, Day -7, Geo Mean, read-out: AUC0-8 h): 429 ng·h/mL
- Cmax (10 mg, Cohort 1 10 mg QD, Day-7, GM (CV %)): 75.9 ng/mL
- AUC(0-t) (10 mg, Cohort 1 10 mg QD, Day-7, GM (CV %), read-out: AUC0-8): 425 ng·h/mL
- Cmax (10 mg, Cohort 2 10 mg QD x 5 d, BIW maintenance dose, C1D1, Geo Mean): 168 ng/mL
- AUC(0-t) (10 mg, Cohort 2 10 mg QD x 5 d, BIW maintenance dose, C1D1, Geo Mean, read-out: AUC0-8 h): 1080 ng·h/mL
- Cmax (10 mg, Cohort 2 10 mg QD x 5 d, BIW maintenance dose, C1D8, Geo Mean): 248 ng/mL
- AUC(0-t) (10 mg, Cohort 2 10 mg QD x 5 d, BIW maintenance dose, C1D8, Geo Mean, read-out: AUC0-8 h): 1730 ng·h/mL
- Cmax (10 mg, Cohort 2 10 mg QD x 5 d, BIW maintenance dose, C2D1, Geo Mean): 149 ng/mL
- AUC(0-t) (10 mg, Cohort 2 10 mg QD x 5 d, BIW maintenance dose, C2D1, Geo Mean, read-out: AUC0-8 h): 1030 ng·h/mL
- Cmax (10 mg, Cohort 2 10 mg QD x 5 d, BIW maintenance dose, Day -7, Geo Mean): 119 ng/mL
- AUC(0-t) (10 mg, Cohort 2 10 mg QD x 5 d, BIW maintenance dose, Day -7, Geo Mean, read-out: AUC0-8 h): 781 ng·h/mL
- Cmax (10 mg, Cohort 2 10 mg Twice Weekly after 5-day QD loading dose, C1D1, GM (CV %)): 94 ng/mL
- AUC(0-t) (10 mg, Cohort 2 10 mg Twice Weekly after 5-day QD loading dose, C1D1, GM (CV %), read-out: AUC0-8): 467 ng·h/mL
- Cmax (10 mg, Cohort 2 10 mg Twice Weekly after 5-day QD loading dose, C1D8, GM (CV %)): 248 ng/mL
- AUC(0-t) (10 mg, Cohort 2 10 mg Twice Weekly after 5-day QD loading dose, C1D8, GM (CV %), read-out: AUC0-8): 1730 ng·h/mL
- Tmax (10 mg, Cohort 2 10 mg Twice Weekly after 5-day QD loading dose, C1D8): 1 h
- Cmax (10 mg, Cohort 2 10 mg Twice Weekly after 5-day QD loading dose, C2D1, GM (CV %)): 149 ng/mL
- AUC(0-t) (10 mg, Cohort 2 10 mg Twice Weekly after 5-day QD loading dose, C2D1, GM (CV %), read-out: AUC0-8): 1030 ng·h/mL
- Tmax (10 mg, Cohort 2 10 mg Twice Weekly after 5-day QD loading dose, C2D1): 1 h
- Cmax (10 mg, Cohort 2 10 mg Twice Weekly after 5-day QD loading dose, Day-7, GM (CV %)): 80.2 ng/mL
- AUC(0-t) (10 mg, Cohort 2 10 mg Twice Weekly after 5-day QD loading dose, Day-7, GM (CV %), read-out: AUC0-8): 353 ng·h/mL
- Cmax (20 mg, Cohort 3 20 mg QD x 5 d, QW maintenance dose, C1D1, Geo Mean): 466 ng/mL
- AUC(0-t) (20 mg, Cohort 3 20 mg QD x 5 d, QW maintenance dose, C1D1, Geo Mean, read-out: AUC0-8 h): 2510 ng·h/mL
- Cmax (20 mg, Cohort 3 20 mg QD x 5 d, QW maintenance dose, C1D8, Geo Mean): 1160 ng/mL
- AUC(0-t) (20 mg, Cohort 3 20 mg QD x 5 d, QW maintenance dose, C1D8, Geo Mean, read-out: AUC0-8 h): 7410 ng·h/mL
- Cmax (20 mg, Cohort 3 20 mg QD x 5 d, QW maintenance dose, C2D1, Geo Mean): 530 ng/mL
- AUC(0-t) (20 mg, Cohort 3 20 mg QD x 5 d, QW maintenance dose, C2D1, Geo Mean, read-out: AUC0-8 h): 3380 ng·h/mL
- Cmax (20 mg, Cohort 3 20 mg QD x 5 d, QW maintenance dose, Day -7, Geo Mean): 242 ng/mL
- AUC(0-t) (20 mg, Cohort 3 20 mg QD x 5 d, QW maintenance dose, Day -7, Geo Mean, read-out: AUC0-8 h): 1320 ng·h/mL
- Cmax (20 mg, Cohort 3 20 mg Weekly after 5-day QD loading dose, C1D1, GM (CV %)): 466 ng/mL
- AUC(0-t) (20 mg, Cohort 3 20 mg Weekly after 5-day QD loading dose, C1D1, GM (CV %), read-out: AUC0-8): 2510 ng·h/mL
- Tmax (20 mg, Cohort 3 20 mg Weekly after 5-day QD loading dose, C1D1): 1 h
- Cmax (20 mg, Cohort 3 20 mg Weekly after 5-day QD loading dose, C1D8, GM (CV %)): 1160 ng/mL
- AUC(0-t) (20 mg, Cohort 3 20 mg Weekly after 5-day QD loading dose, C1D8, GM (CV %), read-out: AUC0-8): 7290 ng·h/mL
- Tmax (20 mg, Cohort 3 20 mg Weekly after 5-day QD loading dose, C1D8): 1 h
- Cmax (20 mg, Cohort 3 20 mg Weekly after 5-day QD loading dose, C2D1, GM (CV %)): 530 ng/mL
- AUC(0-t) (20 mg, Cohort 3 20 mg Weekly after 5-day QD loading dose, C2D1, GM (CV %), read-out: AUC0-8): 3380 ng·h/mL
- Tmax (20 mg, Cohort 3 20 mg Weekly after 5-day QD loading dose, C2D1): 1 h
- Cmax (20 mg, Cohort 3 20 mg Weekly after 5-day QD loading dose, Day-7, GM (CV %)): 242 ng/mL
- AUC(0-t) (20 mg, Cohort 3 20 mg Weekly after 5-day QD loading dose, Day-7, GM (CV %), read-out: AUC0-8): 1320 ng·h/mL
